Source: ChEMBL document CHEMBL3400009, “A FRET-based assay for screening SIRT5 specific modulators” (Bioorg Med Chem Lett, 2015)
Activity calls are given as the source filed them. The rule behind the calls is not given here.

Key:
[1] = biological target: T1, NAD-dependent protein deacylase sirtuin-5, mitochondrial (Homo sapiens, UniProt Q9NXA8); assay: Inhibition of SIRT5 (unknown origin) at 30 uM using (DABCYL)ISGASE(SuK)DIVHSE(EDANS)G peptide substrate incubated for 1 hrs followed by 1 hr incubation with trypsin and nicotinamide by FRET-based assay
Target sequence in this assay (Q9NXA8 37-310 limits assumed): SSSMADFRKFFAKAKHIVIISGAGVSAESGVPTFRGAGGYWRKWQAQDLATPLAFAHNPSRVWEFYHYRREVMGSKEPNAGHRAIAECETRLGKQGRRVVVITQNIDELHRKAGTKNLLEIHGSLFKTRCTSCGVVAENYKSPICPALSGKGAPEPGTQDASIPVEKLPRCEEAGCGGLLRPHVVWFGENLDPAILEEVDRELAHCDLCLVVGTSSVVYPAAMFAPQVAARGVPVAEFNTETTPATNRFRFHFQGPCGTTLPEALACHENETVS

[2] = biological target: T1, NAD-dependent protein deacylase sirtuin-5, mitochondrial; assay: Inhibition of human SIRT5 assessed as reduction in desuccinylase activity using KQTAR(SuK)STGGKA substrate
Target sequence in this assay (Q9NXA8 whole entry): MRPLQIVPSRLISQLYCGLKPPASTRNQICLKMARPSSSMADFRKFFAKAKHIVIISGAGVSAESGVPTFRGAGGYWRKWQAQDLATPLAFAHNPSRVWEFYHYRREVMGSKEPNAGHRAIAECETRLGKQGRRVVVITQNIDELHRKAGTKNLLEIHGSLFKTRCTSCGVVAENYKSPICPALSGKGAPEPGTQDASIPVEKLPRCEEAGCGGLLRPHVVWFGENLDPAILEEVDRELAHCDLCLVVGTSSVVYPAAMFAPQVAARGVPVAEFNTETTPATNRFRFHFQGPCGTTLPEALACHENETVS

N#C/C(=C\c1ccc(-c2cc(Cl)ccc2Cl)o1)C(=O)Nc1cccc2ncccc12
inhibition [1]: inactive
IC50 [2]: > 100 µM

CC(NC(=O)c1ccccc1/N=C/c1c(O)ccc2ccccc12)c1ccccc1 (stereo not drawn) [SIRTINOL]
inhibition [1]: inactive
IC50 [2]: > 100 µM

NC(=O)c1cccnc1
inhibition [1]: inactive

O=C1CCc2c(ccc3ccccc23)O1 [SPLITOMICIN]
inhibition [1]: inactive
IC50 [2]: > 100 µM

Cc1ccc(C(=O)Nc2ccc(S(=O)(=O)O)c3cc(S(=O)(=O)O)cc(S(=O)(=O)O)c23)cc1NC(=O)c1cccc(NC(=O)Nc2cccc(C(=O)Nc3cc(C(=O)Nc4ccc(S(=O)(=O)O)c5cc(S(=O)(=O)O)cc(S(=O)(=O)O)c45)ccc3C)c2)c1
inhibition [1]: Active
